Data from patent US5047418A, “Method of stimulating histamine H3 -receptors” (Smith Kline & French Laboratories Limited, priority 1989, dated 1991).
pEC50: −log10 of the molar value.

How the values were obtained:
histamine H3 -receptor = target: T1, histamine H3 -receptor (Cavia porcellus, UniProt Q9JI35); test: Inhibition of electrically evoked twitch responses of guinea-pig ileum (histamine H3-agonist activity); conditions: read-out: EC50 (concentration of compound which caused 50% inhibition of the twitch response)
T1 construct: twitch responses of the guinea-pig ileum; from tissue; host or cells: guinea-pig ileum (isolated, electrically stimulated, organ bath)
Description: Inhibition of the electrically evoked twitch responses of the guinea-pig ileum by histamine H3 -receptor agonists was studied by addition of graded concentrations of the compound (in volumes of 25 μl or 79 μl) to the organ bath in a sequential manner. Each concentration of agonist was washed out of the bath when the response had reached equilibrium. A four minute period was allowed between each addition of the compound.

histamine H2 -receptor [1] = target: T2, histamine H2 -receptor (Cavia porcellus, UniProt P47747); test: Histamine H2-antagonist activity on guinea-pig atrium; conditions: read-out: pA2 (histamine H2 -antagonist activity) (converted)
T2 construct: On the guinea-pig atrium; from tissue; host or cells: guinea-pig atrium (isolated tissue)

histamine H1 -receptor [2] = target: T3, histamine H1 -receptor (Cavia porcellus, UniProt P31389); test: Histamine H1-agonist activity on guinea-pig ileum
Description: (§1) The activity of the compounds of the formula (1) at the histamine H1 - or H2 -receptor was assessed substantially as described by Parsons et al., Agents and Actions, 1976, 7(1), 31.

histamine H2 -receptor [3] = target: T2, histamine H2 -receptor; test: Histamine H2-agonist activity on guinea-pig atrium
Description: as §1

histamine H1 -receptor [4] = target: T3, histamine H1 -receptor; test: Histamine H1-antagonist activity on guinea-pig ileum
Description: as §1
On the guinea-pig ileum the compound of the formula (1) wherein X is CH2 had no histamine H1 -antagonist activity up to 10^-5 M.

T3 sequence (P31389 whole entry): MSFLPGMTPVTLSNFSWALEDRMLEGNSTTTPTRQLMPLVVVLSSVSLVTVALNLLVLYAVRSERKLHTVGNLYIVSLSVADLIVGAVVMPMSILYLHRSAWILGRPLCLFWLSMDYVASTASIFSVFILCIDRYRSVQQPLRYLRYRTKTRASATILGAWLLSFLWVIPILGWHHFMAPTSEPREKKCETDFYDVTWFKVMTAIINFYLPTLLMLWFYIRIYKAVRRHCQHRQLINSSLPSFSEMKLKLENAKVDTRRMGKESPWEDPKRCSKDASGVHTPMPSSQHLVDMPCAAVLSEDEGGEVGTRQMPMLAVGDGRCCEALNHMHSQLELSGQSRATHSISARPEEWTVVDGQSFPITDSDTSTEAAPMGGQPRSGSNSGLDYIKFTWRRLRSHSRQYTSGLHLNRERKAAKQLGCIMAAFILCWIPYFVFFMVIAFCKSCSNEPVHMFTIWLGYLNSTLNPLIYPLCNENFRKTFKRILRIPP
T2 sequence (P47747 whole entry): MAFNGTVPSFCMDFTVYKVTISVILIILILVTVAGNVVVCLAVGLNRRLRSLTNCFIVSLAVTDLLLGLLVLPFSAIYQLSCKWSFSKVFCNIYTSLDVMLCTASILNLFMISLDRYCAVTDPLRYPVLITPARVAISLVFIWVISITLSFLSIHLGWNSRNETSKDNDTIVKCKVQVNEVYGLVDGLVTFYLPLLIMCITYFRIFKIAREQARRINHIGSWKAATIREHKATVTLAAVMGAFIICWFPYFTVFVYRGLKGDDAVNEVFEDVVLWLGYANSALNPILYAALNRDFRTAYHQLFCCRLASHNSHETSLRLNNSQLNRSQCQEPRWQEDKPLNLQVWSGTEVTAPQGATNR
T1 sequence (Q9JI35 whole entry): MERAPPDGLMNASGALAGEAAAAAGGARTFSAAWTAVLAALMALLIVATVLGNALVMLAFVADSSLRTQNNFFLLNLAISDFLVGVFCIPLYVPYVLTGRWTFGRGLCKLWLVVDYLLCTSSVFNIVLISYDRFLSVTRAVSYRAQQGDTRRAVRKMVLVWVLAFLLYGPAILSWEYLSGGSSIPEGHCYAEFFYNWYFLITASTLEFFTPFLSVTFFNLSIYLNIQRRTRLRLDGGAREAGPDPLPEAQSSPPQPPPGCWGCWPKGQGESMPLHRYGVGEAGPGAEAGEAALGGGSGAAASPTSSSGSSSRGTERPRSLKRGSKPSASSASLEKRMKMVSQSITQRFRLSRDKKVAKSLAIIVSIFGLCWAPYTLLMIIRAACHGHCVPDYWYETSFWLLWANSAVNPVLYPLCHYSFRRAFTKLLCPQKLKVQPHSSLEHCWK

Q: With N=C(N)SCCc1c[nH]cn1 [X = S, S-[2-(4(5)-imidazolyl)ethyl]isothiourea] as the molecule, how does the pEC50 (histamine H3 -receptor) read?
A: 8.34

Q: And the Kb (histamine H2 -receptor [1])?
A: 79.4 µM

Q: What about the “concentration at which histamine H1 -agonist activity is demonstrated” value (histamine H1 -receptor [2]) of the same molecule?
A: 10^-4 to 10^-3 M

Q: How did the pEC50 (histamine H3 -receptor) turn out when N=C(N)CCCc1c[nH]cn1 [X = CH2, 4-(4(5)-imidazolyl)butyramidine] was run?
A: 8.96

Q: And the “concentration at which histamine H2 -agonist activity is demonstrated” value (histamine H2 -receptor [3])?
A: > 10^-5 M

Q: And the Kb (histamine H2 -receptor [1])?
A: ~251 µM

Q: And the “concentration at which histamine H1 -agonist activity is demonstrated” value (histamine H1 -receptor [2])?
A: > 10^-5 M

Q: And the “concentration at which histamine H1 -antagonist activity is demonstrated” value (histamine H1 -receptor [4])?
A: > 10^-5 M
